Structures are written as SMILES.

This data set can be described thus: method code SF-GLC, from DOI: 10.1016/s0045-6535(99)00157-5.
What is called logP is a log measure of how a compound divides between an organic and an aqueous phase. Higher therefore signals a more lipophilic compound. Molecule `ClCC12CCC(C(Cl)C1(Cl)Cl)C2(C(Cl)Cl)C(Cl)Cl` (stereo not drawn) registered a logP of 5.49.

Regarding `CC1(C(Cl)Cl)C2C(Cl)C(Cl)C1(C(Cl)Cl)C(Cl)C2Cl` (stereo not drawn), the logP was determined as 5.52.

`ClCC1(CCl)C2C(Cl)C(Cl)(Cl)C1(C(Cl)Cl)CC2(Cl)Cl` (stereo not drawn) showed a logP of 6.26.

For `ClC=C1C2C(Cl)C(Cl)C(C2Cl)C1(CCl)CCl` (stereo not drawn), the logP was 5.35.

Regarding `ClCC1(C(Cl)Cl)C2CC(Cl)(Cl)C1(C(Cl)Cl)C(Cl)C2Cl` (stereo not drawn), the logP was 5.8.

As to `C[C@]1(C(Cl)Cl)[C@H]2CC(Cl)(Cl)[C@]1(C(Cl)Cl)CC2(Cl)Cl`, the logP was 5.9.

In turn, `ClCC1(C(Cl)Cl)C2C(Cl)CC1(C(Cl)Cl)C(Cl)C2Cl` (stereo not drawn) registered a logP of 5.19.

`ClCC1(CCl)[C@H]2CC(Cl)(Cl)[C@]1(CCl)[C@@H](Cl)[C@@H]2Cl` registered a logP of 5.23.

`ClCC1(CCl)C(=C(Cl)Cl)C2CC1C(Cl)(Cl)C2Cl` (stereo not drawn) registered a lipophilicity (logP) of 5.44.

Take `ClCC1(CCl)C2C(Cl)C(Cl)C1(CCl)C(Cl)(Cl)C2Cl` (stereo not drawn): the logP came out at 5.74.

Turning to `ClCC1(C(Cl)Cl)C2CC(Cl)(Cl)C1(C(Cl)Cl)CC2(Cl)Cl` (stereo not drawn), the logP turned out to be 5.96.

In turn, `ClC[C@@]1(C(Cl)Cl)C2[C@@H](Cl)[C@H](Cl)C1(C(Cl)Cl)[C@@H](Cl)[C@@H]2Cl` had a log partition coefficient (logP) of 5.89.

For the molecule `ClCC1(C(Cl)Cl)C2CC(Cl)C1(C(Cl)Cl)CC2(Cl)Cl` (stereo not drawn), the logP came to 5.75.

`CC1(CCl)C2CC(Cl)(Cl)C1(C(Cl)Cl)CC2Cl` (stereo not drawn) had a logP of 5.49.

In turn, `ClC=C1C2CC(C1(CCl)CCl)C(Cl)(Cl)C2Cl` (stereo not drawn) showed a logP of 5.2.

Regarding `ClC[C@@]1(C(Cl)Cl)[C@@H]2CC(Cl)(Cl)[C@@]1(C(Cl)Cl)[C@H](Cl)C2(Cl)Cl`, the logP amounted to 6.64.

Take `ClCC1(C(Cl)Cl)C(=C(Cl)Cl)C2CC1C(Cl)(Cl)C2Cl` (stereo not drawn): the logP is 5.49.

Turning to `ClCC1(CCl)C2[C@@H](Cl)[C@H](Cl)C1(C(Cl)Cl)[C@@H](Cl)[C@@H]2Cl`, the logP came out at 5.57.
